# From patent publication EP4043435A1, “COMPOUND FOR DETECTING SENESCENT CELLS AND USE THEREOF” (Universitat Politècnica de València, priority 2019, dated 2021)
# Legend:
# 4T1 cells [1] = experiment: Confocal microscopy of fluorescence emission in control and Palbociclib-induced senescent cells; assay type: cell-based, mouse
# Procedure: Mouse mammary carcinoma 4T1 cells were cultured in DMEM supplemented with 10 % FBS and incubated in 20 % O2 and 5 % CO2 at 37 °C. The cells were incubated with 5 µM of Palbociclib in DMEM for one week to induce the senescence process. Subsequently, the cells were seeded in a flat clear-bottom 96-well plate with a density of 6000 cells for senescent cells and 4000 in the control cells (without prior treatment with Palbociclib). After 24 hours, the cells were incubated with different concentrations of probe Cy7-Gal and its fluorophore (Cy7), with confocal microscopy images being acquired after 30 min of incubation. A more than 10-fold increase in fluorescence emission is observed between senescent cells treated with probe Cy7-Gal and untreated senescent cells (self-fluorescence signal).
# 4T1 mammary tumours = experiment: In vivo detection of senescence through urine and bladder fluorescence (IVIS and fluorescence spectroscopy) in mice bearing mammary tumours; parameters: species or system female BALB/cByJ mice
# Procedure: Urine fluorescence measurements were carried out by taking 5 µl of urine and diluting it in distilled water to 100 µl. The samples were obtained by exciting at 535 nm and collecting the absorption maximum at 566 nm.
# The Palbociclib was administered through an oral probe daily for 7 days at different concentrations of 10 mg / kg, 50 mg / kg and 100 mg / kg dissolved in 50 mM sodium lactate at pH 5 in order to induce senescence. […] The mice were monitored for 15 minutes post-injection of the probe in the IVIS® equipment following the accumulation of fluorophore Cy7 in the bladder after the hydrolysis of probe Cy7-Gal in the presence of senescent cells.
# 4T1 cell tumours = experiment: Ex vivo IVIS fluorescence of extracted tumours and organs; assay type: in vivo, female BALB/cByJ mice; conditions: after sacrifice, different Palbociclib groups (FIG. 8d)
# Procedure: The mice were kept in the Prince Phillip Research Centre (Centro de Investigación Príncipe Felipe (CIPF)) following the recommendations of the Federation of European Laboratory Animal Science Associations (FELASA). All the processes applied on the animals were approved by the Technical Research Committee for Animal Welfare (Comité Técnico de Investigación para el bienestar de los animals, CElyBA). 4T1 mammary tumours were generated using 4T1 cells: The cells were cultured in DMEM supplemented with 10 % FBS and penicillin-streptomycin. To generate the formation of mammary tumours, the cells were trypsinised and counted with a LUNA ™ automated cell counter and injected by subcutaneous route into the left mammary of 28- to 34-week-old female BALB/CBY mice at a concentration of […] in a volume of 100 µl. The volume of the tumour was measured every two days with a gauge and calculated as V = (a x b2) / 2, wherein a is the longest and b is the shortest of two perpendicular diameters. […] The mice were monitored for 15 minutes post-injection of the probe in the IVIS® equipment following the accumulation of fluorophore Cy7 in the bladder after the hydrolysis of probe Cy7-Gal in the presence of senescent cells. […] The measurement of fluorescence in organs and tumours for the different groups of mice was performed with the IVIS technique.
# 4T1 cells [2] = experiment: Viability assay (CellTiter-GLO Luminescent Cell Viability Assay) in control and senescent cells; assay type: cell-based, mouse; conditions: 4T1 control and senescent cells, different concentrations, 24 h of incubation
# Procedure: Mouse mammary carcinoma 4T1 cells were cultured in DMEM supplemented with 10 % FBS and incubated in 20 % O2 and 5 % CO2 at 37 °C. To obtain cellular senescence, the cells were incubated with 5 µM of Palbociclib in DMEM for one week. Subsequently, the cells were seeded in a flat clear-bottom 96-well plate with a density of 6000 cells for senescent cells and 4000 in the control cells. After 24 h, the cells were treated with different concentrations of probe Cy7-Gal and its fluorophore (Cy7). Viability measurements were obtained after 24 h of incubation using CellTiter-GLO Luminescent Cell Viability Assay as a developer.
smiles,measurement,setting,value
CC(=O)OC[C@H]1O[C@@H](Oc2ccc(/C=C/C3=[N+](CCCCS(=O)(=O)[O-])c4ccccc4C3(C)C)cc2/C=C/C2=[N+](CCCCS(=O)(=O)[O-])c3ccccc3C2(C)C)[C@H](OC(C)=O)[C@@H](OC(C)=O)[C@H]1OC(C)=O [Cy7-Gal],increase in fluorescence emission between senescent cells and control cells,"4T1 cells [1]; both incubated in the presence of probe, compared with the more than 10-fold increase over untreated senescent cells, 30 min of incubation",slightly higher
same,increase in fluorescence emission,"4T1 cells [1]; senescent 4T1 cells (5 µM Palbociclib, one week) treated with probe vs untreated senescent cells (self-fluorescence signal), 30 min of incubation",more than 10 fold
same,selectivity of the probe for detecting senescent cells,4T1 cells [1]; senescent vs control 4T1 cells,high selectivity
same,expulsion from the organism through urine,"4T1 mammary tumours; female mice urinated after coming out from under anaesthesia, monitored 15 minutes post-injection",expelled from the organism
same,fluorescence emission of the urine samples vs degree of cellular senescence,"4T1 mammary tumours; mice with 4T1 tumours given Palbociclib 10, 50 or 100 mg/kg orally for 7 days, then probe 23.3 mg/ml in 100 µl, IVIS and fluorescence spectroscopy",correspondence between the fluorescence emission of the urine samples and the degree of cellular senescence
same,fluorescence signal in tumours and most representative organs (IVIS),4T1 cell tumours,"a signal is only observed in senescent tumours, and no signal is observed in the different organs"
same,toxicity (viability),4T1 cells [2],minimum toxicity
